Assay [1] deals with Aedes aegypti (Orlando strain) females. Description: Host-seeking screening assay (miniport olfactometer). As to conditions: for Attraction (relative to saline): per-compound value of Fig. 3C. Format: in vivo. In outline: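 Fasted Orlando-strain females fed saline meals (400 mM NaHCO3) with 1 mM ATP and test compound at 1 μM final via warmed membrane feeders; lethality counted 24 h post-meal. At 48 h, attraction to human-scented stocking plus 5% CO2 scored over 5 min, normalized to matched saline-fed controls.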

Assay [2] has as its target Ae. aegypti NPYLR7 (Aedes aegypti, UniProt U5N1H5). Description: In vitro calcium (GCaMP6s) FLIPR assay in HEK293T cells transfected with NPYLR7. As to conditions: for in vitro potency (in words): relative to reference compound TDI-012631; for activation at 100 µM: single replicate of the dose-response curve. Format: cell-based. In a few lines:
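HEK293T cells transiently co-transfected with GCaMP6s, mouse Gqα15 and NPYLR7; FLIPR imaging every second for 5 min, compound (0–100 μM) added after 30 s baseline in HBSS + 20 mM HEPES. Response normalized to buffer (0%) and 10 μM FMRFa3 (100%); relative EC50 by four-parameter fit, replicates averaged.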

The subject of assay [3] is Aedes aegypti (Orlando strain) females. Description: Glytube feeding: females feeding to repletion and weight per female (meal palatability). The class given is in vivo. The following applies: Supplemental Figure 1 Panel A; compounds of Fig 3; individual replicate values. As for the experimental part:
(§1) Groups of 60–150 females were placed in bucket cages with a diameter of 21.6 cm and height of 16.5 cm (VWR) and fasted with access to water for 24 h prior to feeding. Meals were delivered to females via Glytube membrane feeders as described previously. Meals consisted of 1.5 ml sheep blood (HemoStat Laboratories), saline (400 mM NaHCO3 + dih2O), or saline and test compound. Lyophilized compounds were stored at room temperature until use. High-concentration stocks (30 mM in 100% dimethyl sulfoxide [DMSO]) (Sigma-Aldrich) were stored at −20 °C and diluted in saline immediately prior to feeding. Once prepared, meals and glycerol heating elements were warmed in a 42 °C water bath for 15 min to provide warmth to attract mosquitos to feed. ATP (1 mM final concentration) and test compounds (1 μM final concentration) were added prior to placing the meal on top of the mesh on the cage containing female mosquitos. Females were allowed 15–20 min to feed to repletion. Abdominal engorgement was scored by eye and confirmed by weighing females to ensure full feeding (Data S1). […] Females were returned to their original cage with a diH2O wick for 48 h prior to behavioral testing. The lethality of each compound was measured by counting the number of dead females in each cage 24 h post-meal.
Supplementary file 13071_2024_6347_MOESM1_ESM.png: Supplementary Material 1: Figure 1. […] (A) Percent of females feeding to repletion and (B) weight per female after feeding on the indicated meal used for testing in Miniport olfactometer experiments in Figure 3B. (C) Percent of females feeding to repletion and (D) weight per female after feeding on the indicated meal used for testing in live host assays in Figure 4. Data are shown as mean with standard deviation. n = 2–22 replicate cages, 60–150 females/cage. Females were weighed in groups of five to ensure reliable readings. Kruskal–Wallis with Dunn’s multiple comparisons to saline-fed group, ns P > 0.01, * P < 0.01, *** P < 0.0001. (PNG 321 KB)

The test system is the same in assay [4]. The assay is described as follows: Biting assay (mouse-in-cage). Format: in vivo. Also noted: key to Difference between medians: Actual (vs. saline) / Difference between medians: Hodges-Lehmann (vs. saline): differences in percent biting (blood-fed/total females, %). The following applies: for Difference between medians: Actual (vs. saline) / Difference between medians: Hodges-Lehmann (vs. saline) / Median (percent freshly blood-fed) / Significantly different (P < 0.05)? vs. saline: fed 1 μM; for Percentage of females that freshly blood-fed on an anesthetized mouse: fed 1 μM 48 h prior, 15 min exposure, individual replicates; for effect on biting / blood-feeding from a live host (in words): fed at a dose of 1 μM. The method, then: as §1, with “ATP (1 mM final concentration) and test compounds (1 μM final concentration) were added prior to placing the meal on top of the mesh on the cage containing female mosquitos.” left out
This assay was modified from. Females were fed and scored as described above. Forty-eight hours post-meal, females were anesthetized in a 4 °C cold room and aspirated into a petri dish (Thermo Fisher Biosciences) with a randomly assigned color powder (Slice of the Moon; Chameleon Colors) to mark their treatment group. Females were then individually removed from the color powder, placed inside a cage measuring 91 cm × 61 cm × 61 cm (BugDorm), and allowed 2–4 h to recover. Each experiment consisted of a cage with 12–20 females in each treatment group including environmental (non-fed and blood-fed) and vehicle (saline-fed) control groups. The experiment began once an anesthetized mouse was introduced to the center of the cage, and females were allowed 15 min to blood-feed. The mouse was then removed, and the cage was placed at 4 °C to anesthetize females for collection. Females were aspirated into a large glass petri dish (Pyrex) and scored under a dissection microscope (Nikon SMZ1500) for powder color and blood-feeding status. Females were scored as blood-fed if fresh blood was present in the abdomen. Percent biting was calculated as females freshly blood-fed/total females in each respective treatment group.

Setting [5] is: fed 1 μM in saline, tested 48 h post-meal.
Setting [6] is: relative EC50, percent effect relative to 10 μM FMRFa3, read-out: EC50.
Where [7] appears, read: EC50 of the individual assay date/plate (assay date), read-out: EC50.
The mark [8] stands for this setting: HEK-293T, 11.1111 uM, single replicate, normalised response.
The mark [9] stands for this setting: HEK-293T, 33.3333 uM, single replicate, normalised response.
Where [10] appears, read: sheet Figure 3C, unit inferred, read-out: EC50.
Where [11] appears, read: summary EC50 per compound (mean over assay dates), the unit is taken from the neighbouring EC50 (uM) column, read-out: Reported Metric.
Setting [12] is: Figure 1E Summary, third list (n = 39), read-out: Reported Metric (Summary list).

This note sets out measurements from paper PMC11212260, “Next-generation neuropeptide Y receptor small-molecule agonists inhibit mosquito-biting behavior” (Parasites & Vectors, 2024).

pEC50: −log10 of the molar value. Values joined by “and” are separate entries in the source; they are usually repeats but may differ in a detail not shown here. Equal values may be shown once. Read-outs that look alike come from different tables or passages of the source. A value given as a limit tells only on which side of the number the result lay.

Sequence of Ae. aegypti NPYLR7 (U5N1H5 entry or part of it): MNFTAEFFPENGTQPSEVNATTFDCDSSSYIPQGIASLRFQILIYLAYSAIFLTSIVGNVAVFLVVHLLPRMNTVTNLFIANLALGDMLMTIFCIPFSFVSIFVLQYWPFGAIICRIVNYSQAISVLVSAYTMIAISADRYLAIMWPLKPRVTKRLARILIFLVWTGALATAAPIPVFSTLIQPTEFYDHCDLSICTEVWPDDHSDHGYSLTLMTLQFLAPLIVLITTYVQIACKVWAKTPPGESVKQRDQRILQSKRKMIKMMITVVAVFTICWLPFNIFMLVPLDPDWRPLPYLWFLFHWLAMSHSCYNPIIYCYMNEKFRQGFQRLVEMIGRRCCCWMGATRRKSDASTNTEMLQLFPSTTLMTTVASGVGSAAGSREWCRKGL

Regarding `COc1ccc2nc(N)nc(C)c2c1` [TDI-012610], the “Attraction (relative to saline)” value in assay [1] (setting [5]) was 0.99. For the same molecule, the “Reported Metric (Summary list)” value in assay [2] (Figure 1E Summary, first list: low sensitivity or >100 (n = 41)) is “low sensitivity”. For the same molecule, the “EC50 (uM)” value in assay [2] (Figure 1E, EC50 of the single assay date/plate) is listed as “low sensitivity”. Moreover, the “Reported Metric (EC50)” value in assay [2] (Figure 1E, metric reported per compound, repeated on every replicate line) is recorded as “low sensitivity”. For the same molecule, the activation at 3.7037 µM in assay [2] (HEK-293T, compound 3.7037 uM, single replicate well, read-out: response at 3.7037) was determined as 9.1%. The activation at 11.1111 µM in assay [2] (HEK-293T, compound 11.1111 uM, single replicate well, read-out: response at 11.1111) stood at 4.96%. Also, the activation at 33.3333 µM in assay [2] (HEK-293T, compound 33.3333 uM, single replicate well, read-out: response at 33.3333) stood at 1.85%. Also, the pEC50 in assay [2] (setting [6]) is less than 4.00. Also, the “in vitro potency (in words)” value in assay [2] is “loss of potency”. In addition, in assay [3], the “% feeding (females feeding to repletion)” value came out at 89.86%.

On to `CCOc1ccc(COc2ccc3c(C)nc(NC(=N)N)nc3c2)cc1` [TDI-014176], for which the “Attraction (relative to saline)” value in assay [1] (setting [5]) was found to be 0.74. Also, the pEC50 is 5.20 in assay [2] (setting [7]); 5.20 in assay [2] (Figure 1E Summary, second list (n = 48), read-out: Reported Metric (Summary list)); 5.20 in assay [2] (setting [6]). Moreover, the activation at 0.0017 µM in assay [2] (HEK-293T, 0.0017 uM, single replicate, normalised response) was determined as 4.15%. The activation at 0.0051 µM in assay [2] (HEK-293T, 0.0051 uM, single replicate, normalised response) came to 3.37%. In assay [2] (setting [8]), the activation at 11.1111 µM came out at 88%. For the same molecule, the activation at 33.3333 µM in assay [2] (setting [9]) turned out to be 131%. In addition, the activation at 100 µM in assay [2] (HEK-293T, normalised response) was 133%. Also, the EC50 in assay [2] (setting [10]) and in assay [2] (setting [11]) was 6.35 µM each time. For the same molecule, in assay [3], the “% feeding (females feeding to repletion)” value is 58.02%.

With `CCCOc1ccc2c(C)nc(NC(=N)N)nc2c1` [TDI-014178], the “Host-seeking relative to saline (test compound % host-seeking/average matched saline % host-seeking)” value in assay [1] (fed 1 μM in saline, tested 48 h post-meal, individual replicates, listed as TDI-04178) was 0.93 and 1. In assay [1] (setting [5]), the “Attraction (relative to saline)” value is 0.93. Besides, the pEC50 in assay [2] (setting [7]), in assay [2] (setting [12]) and in assay [2] (setting [6]) was 5.65 throughout. Besides, the activation at 1.2346 µM in assay [2] (HEK-293T, 1.2346 uM, single replicate, normalised response) was 42.7%. In assay [2] (HEK-293T, 3.7037 uM, single replicate, normalised response), the activation at 3.7037 µM came to 66.7%. In assay [2] (setting [8]), the activation at 11.1111 µM came out at 86.6%. Moreover, the activation at 33.3333 µM in assay [2] (setting [9]) turned out to be 96.4%. Besides, the activation at 100 µM in assay [2] (HEK-293T, normalised response) was found to be 100%. Also, the EC50 in assay [2] (setting [10]) and in assay [2] (setting [11]) was 2.25 µM throughout. Moreover, the “% feeding (females feeding to repletion)” value in assay [3] was 49.19%.

As to `Cc1nc(NC(=N)N)nc2cc(OCc3ccc(OC(F)F)cc3)ccc12` [TDI-014170], in assay [1] (setting [5]), the “Attraction (relative to saline)” value was determined as 0.91. Moreover, the “effect on host-seeking (in words)” value in assay [1] (fed at a dose of 1 μM) is “did not reduce host-seeking”. In addition, the pEC50 in assay [2] (setting [7]) is 5.79. In assay [2] (setting [12]), the pEC50 was 5.79. In assay [2] (setting [8]), the activation at 11.1111 µM turned out to be 80.9%. Also, the activation at 33.3333 µM in assay [2] (setting [9]) turned out to be 99.8%. Further, the activation at 100 µM in assay [2] (HEK-293T, normalised response) worked out at 128%. The pEC50 in assay [2] (setting [6]) was 5.79. The “in vitro potency (in words)” value in assay [2] is reported as “high in vitro potency”. The EC50 in assay [2] (setting [11]) was 1.63 µM. For the same molecule, in assay [4], the “Difference between medians: Actual (vs. saline)” value is listed as -19.9; the “Difference between medians: Hodges-Lehmann (vs. saline)” value is reported as -11; the “Median (percent freshly blood-fed)” value is recorded as 59.60, n=9%; the “Significantly different (P < 0.05)? vs. saline” value is listed as “No”. The “effect on biting / blood-feeding from a live host (in words)” value in assay [4] is “nor did it significantly reduce biting”. Moreover, the “Percentage of females that freshly blood-fed on an anesthetized mouse” value in assay [4] (listed as TDI-04170) is 44% and 57% and 85% and 74% and 53% and 82% and 55% and 62%.

`CNc1nc(NC(=N)N)nc2cc(OCC3CCOCC3)ccc12` [TDI-014188]: in assay [1] (setting [5]), the “Attraction (relative to saline)” value is 0.895. The pEC50 in assay [2] (setting [6]) is 7.22. In addition, the “in vitro potency (in words)” value in assay [2] was “significantly improved in vitro potency”. For the same molecule, in assay [4], the “Difference between medians: Actual (vs. saline)” value was -21.9; the “Difference between medians: Hodges-Lehmann (vs. saline)” value is recorded as -21; the “Median (percent freshly blood-fed)” value is 50.00, n=11%; the “Significantly different (P < 0.05)? vs. saline” value is listed as “Yes”. Besides, the “effect on biting / blood-feeding from a live host (in words)” value in assay [4] was “reduced biting behavior”. Also, the “Percentage of females that freshly blood-fed on an anesthetized mouse” value in assay [4] (listed as TDI-04188) is 17% and 78% and 72% and 33% and 47% and 67% and 53%.
